How the values were obtained:
[1] = test system: tissues and organs of the intraperitoneal cavity in mice; assay: delivery of methylene blue from PAG hydrogel to tissues and organs of the intraperitoneal cavity in mice; assay type: in vivo
Experimental: The delivery of the dye from the charged hydrogel to the tissues and organs of the intraperitoneal cavity in mice is observed.
To do this, an isotonic solution of PAG (molar mass equal to about 176 000 g/mol, 6% by weight of PAG) containing methylene blue (4 ml of solution (20 mg of dye) per 16 ml of gel) formed at 60° C. conditioned is introduced into heated syringes to be injected rapidly at 45° C. through a 23-gauge needle in order to fill the intraperitoneal cavity of the mice.
The mice treated according to the regulatory procedures were sacrificed after 2 hours, 8 hours, 24 hours, 30 hours and 52 hours (two animals per point).
After opening the abdomen, the distributions of the blue color in the gel, the tissues and the organs were assessed visually and compared at the same times with those observed for the control mice which received by similar injection an isotonic solution of the same concentration of methylene blue.

[2] = release of drug models from PAG hydrogel into physiological serum at 37° C. (UV spectrometry); assay type: physicochemical
Experimental: 60 mg of PAG polymer of molecular mass equal to 170 000 g/mol are placed in contact with 1 mil of physiological serum (6% by mass) in a small, hermetically scaled cylindrical flask and heated at 60° C. for a few minutes to obtain a clear, homogeneous solution, which is gelled by cooling.
The cycle is repeated twice to perfect the homogeneity of the gel.
10 mg of the compound chosen as drug model are added. The mixture is heated to have a homogeneous solution, which is left to cool to obtain the compound-gel system.
The flask is placed in a mobile incubator at 37° C. after having added on top of the gel formed 1 ml of physiological serum, into which the compound trapped in the hydrogel gradually diffuses. The receiving medium is then renewed at regular intervals and the compound that has diffused is evaluated quantitatively by UV spectrometry. The curve of gradual release is plotted as a percentage of the amount initially placed in the gel.

time after which the blue color totally disappeared ([1]; control mice: isotonic solution of the same concentration without PAG, intraperitoneal injection) | time the gel, tissues and organs, especially the liver, remained colored ([1]; in isotonic PAG solution (about 176 000 g/mol, 6% by weight), injected at 45° C. intraperitoneally, mice) | SMILES | extent of release from the gel ([2]; 10 mg in PAG 170 000 g/mol gel, 6% by mass in physiological serum, 37° C.) | "burst" release as percentage of the amount initially placed in the gel ([2]; at 1 hour, 10 mg in PAG 170 000 g/mol gel, 6% by mass in physiological serum, 37° C.) | dissolution in the same medium without gel ([2]; physiological serum, without gel)
24 h | at least 52 hours | CN(C)c1ccc2nc3ccc(=[N+](C)C)cc-3sc2c1 [methylene blue] |  |  | 
 |  | CC(=O)[O-].CC(=O)[O-].[Co+2] [cobalt acetate] | gradual release until depletion is complete | less than 15% | dissolves instantaneously in its entirety

From patent US9687552B2, “Association of poly(N-acryloylglycinamide) with at least one active principle” (CENTRE NATIONAL DE LA RECHERCHE SCIENTIFIQUE, priority 2012, dated 2017)
